Laboratory results: ChEMBL document CHEMBL1201862, “PubChem BioAssay data set” (2004)
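Exposure lasted 48 hours, with cells grown in 96-well plates and compounds tested at five concentrations. GI50: concentration for 50% inhibition of growth.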 Active and inactive are the calls of the source. Cut-off read from the data, not from the text of the source: active = GI50 up to about 1.1 µM and inactive = higher.

Legend:
Assay in all cases: DTP human tumour cell line panel, 48 h
IGROV-1 = tested on: IGROV-1
SN12C = tested on: SN12C
SF-268 = tested on: SF-268
M14 = tested on: M14
A549 = tested on: A549
HOP-62 = tested on: HOP-62
RPMI-8226 = tested on: RPMI-8226
UACC-62 = tested on: UACC-62
SK-MEL-28 = tested on: SK-MEL-28
MDA-MB-435 = tested on: MDA-MB-435
MDA-N = tested on: MDA-N
COLO 205 = tested on: COLO 205
786-0 = tested on: 786-0
LOX IMVI = tested on: LOX IMVI
SF-295 = tested on: SF-295
NCI-H460 = tested on: NCI-H460
MOLT-4 = tested on: MOLT-4
UACC-257 = tested on: UACC-257
HCC 2998 = tested on: HCC 2998

Measured: GI50

CNS(=O)(=O)c1ccccc1C(=N)c1ccccc1
inactive: IGROV-1 > 100 µM | SN12C > 100 µM | SF-268 > 100 µM | M14 > 100 µM | A549 > 100 µM | HOP-62 > 100 µM | RPMI-8226 > 100 µM | UACC-62 > 100 µM | SK-MEL-28 > 100 µM | MDA-MB-435 > 100 µM | MDA-N > 100 µM | COLO 205 > 100 µM | 786-0 > 100 µM | LOX IMVI > 100 µM | SF-295 > 100 µM | NCI-H460 > 100 µM | MOLT-4 > 100 µM

CN(N=O)c1ccc(/C=C/c2ccnc3ccccc23)cc1
inactive: IGROV-1 49 µM | SN12C 37.6 µM | SF-268 79.8 µM | M14 93.1 µM | A549 41.6 µM | HOP-62 78.3 µM | UACC-62 50.7 µM | SK-MEL-28 > 100 µM | MDA-MB-435 > 100 µM | MDA-N 75.3 µM | COLO 205 39.3 µM | 786-0 46.5 µM | LOX IMVI 36.3 µM | SF-295 41.4 µM | NCI-H460 34.2 µM | MOLT-4 34 µM | UACC-257 72.4 µM

NC1=NC(Cn2nc(-c3ccccc3)c3ccccc3c2=O)=NNC(=O)N1
inactive: IGROV-1 > 100 µM | HCC 2998 > 100 µM | SN12C > 100 µM | SF-268 > 100 µM | M14 > 100 µM | A549 > 100 µM | HOP-62 > 100 µM | RPMI-8226 > 100 µM | UACC-62 > 100 µM | SK-MEL-28 > 100 µM | COLO 205 > 100 µM | 786-0 > 100 µM | SF-295 > 100 µM | NCI-H460 > 100 µM | MOLT-4 > 100 µM | UACC-257 > 100 µM

CNC(=O)N1CN(c2ccccc2)C2(CCN(CCCC(=O)c3ccc(F)cc3)CC2)C1=O
inactive: IGROV-1 19.5 µM | HCC 2998 7.82 µM | SN12C 21.4 µM | SF-268 39.1 µM | M14 16.5 µM | A549 45.1 µM | HOP-62 8.22 µM | RPMI-8226 14.1 µM | UACC-62 18.7 µM | SK-MEL-28 17.2 µM | COLO 205 4.56 µM | 786-0 26.1 µM | LOX IMVI 17.1 µM | SF-295 16.8 µM | MOLT-4 4.57 µM | UACC-257 7.64 µM

C1COC2SC3=C(SC(=C4SC5=C(SCCS5)S4)S3)SC2O1 (stereo unspecified)
inactive: IGROV-1 77.6 µM | HCC 2998 > 100 µM | SN12C > 100 µM | SF-268 > 100 µM | M14 94 µM | A549 > 100 µM | HOP-62 > 100 µM | UACC-62 22 µM | SK-MEL-28 > 100 µM | MDA-MB-435 4.07 µM | COLO 205 > 100 µM | 786-0 77.8 µM | SF-295 36.7 µM | NCI-H460 > 100 µM | MOLT-4 > 100 µM | UACC-257 > 100 µM

O=C(COc1ccc(Cl)cc1Cl)N/N=C/C=C/c1ccc([N+](=O)[O-])o1
inactive: IGROV-1 1.42 µM | SN12C 8.47 µM | SF-268 29.4 µM | M14 2.72 µM | A549 8.24 µM | HOP-62 15.1 µM | RPMI-8226 2.26 µM | UACC-62 3.82 µM | SK-MEL-28 4.08 µM | MDA-MB-435 2.63 µM | MDA-N 3.43 µM | 786-0 12.3 µM | LOX IMVI 3.27 µM | SF-295 23.3 µM | NCI-H460 8.39 µM | MOLT-4 2.28 µM

[O-][n+]1cc(SCc2ccccc2)ncc1SCc1ccccc1
inactive: IGROV-1 > 10 µM | HCC 2998 > 10 µM | SN12C > 10 µM | SF-268 > 10 µM | M14 > 10 µM | A549 > 10 µM | HOP-62 > 10 µM | RPMI-8226 > 10 µM | UACC-62 > 10 µM | SK-MEL-28 > 10 µM | MDA-MB-435 > 10 µM | COLO 205 > 10 µM | 786-0 > 10 µM | LOX IMVI > 10 µM | SF-295 > 10 µM | NCI-H460 > 10 µM | MOLT-4 > 10 µM | UACC-257 > 10 µM

CC(C)(C)OC(=O)N(CCCCNC(=O)C(F)(F)F)CCCNC(=O)C(F)(F)F
inactive: IGROV-1 > 100 µM | HCC 2998 > 100 µM | SN12C > 100 µM | SF-268 > 100 µM | M14 > 100 µM | A549 > 100 µM | HOP-62 > 100 µM | RPMI-8226 > 100 µM | UACC-62 > 100 µM | SK-MEL-28 > 100 µM | MDA-MB-435 > 100 µM | COLO 205 > 100 µM | 786-0 > 100 µM | SF-295 > 100 µM | NCI-H460 > 100 µM | MOLT-4 > 100 µM | UACC-257 > 100 µM

O=C1C[C@@H]2CCCC[C@@H]2C12SCCS2
inactive: IGROV-1 > 100 µM | HCC 2998 > 100 µM | SN12C > 100 µM | SF-268 > 100 µM | A549 > 100 µM | HOP-62 > 100 µM | RPMI-8226 > 100 µM | UACC-62 77.3 µM | SK-MEL-28 89.3 µM | COLO 205 > 100 µM | 786-0 > 100 µM | LOX IMVI > 100 µM | SF-295 > 100 µM | NCI-H460 > 100 µM | MOLT-4 69.8 µM | UACC-257 > 100 µM

COc1ccc2c(c1)CC[C@@H]1[C@@H]2CC[C@]2(C)C(=O)/C(=C/c3ccc(N(C)C)cc3)C[C@@H]12
inactive: HCC 2998 > 100 µM | SF-268 32.4 µM | M14 61.2 µM | A549 41.9 µM | HOP-62 20.8 µM | RPMI-8226 > 100 µM | UACC-62 32.6 µM | MDA-MB-435 > 100 µM | COLO 205 > 100 µM | 786-0 29.2 µM | SF-295 40.2 µM | NCI-H460 39.8 µM | MOLT-4 > 100 µM

COC1CCN(N(C)C)O1 (stereo unspecified)
inactive: IGROV-1 > 100 µM | HCC 2998 > 100 µM | SN12C > 100 µM | SF-268 > 100 µM | M14 > 100 µM | A549 > 100 µM | HOP-62 > 100 µM | RPMI-8226 > 100 µM | UACC-62 > 100 µM | SK-MEL-28 > 100 µM | MDA-MB-435 > 100 µM | COLO 205 > 100 µM | 786-0 > 100 µM | LOX IMVI > 100 µM | SF-295 > 100 µM | NCI-H460 > 100 µM | MOLT-4 > 100 µM | UACC-257 > 100 µM

O=C(c1ccccc1)c1ccc2[nH]c(-c3c(Cl)c(Cl)c(Cl)c(Cl)c3C(=O)N/N=C/c3cccc(Oc4ccccc4)c3)nc2c1
inactive: IGROV-1 > 100 µM | SN12C > 100 µM | SF-268 76.7 µM | M14 > 100 µM | A549 > 100 µM | HOP-62 65.2 µM | RPMI-8226 > 100 µM | SK-MEL-28 > 100 µM | MDA-MB-435 38.1 µM | MDA-N 46.5 µM | COLO 205 > 100 µM | 786-0 > 100 µM | LOX IMVI > 100 µM | SF-295 54.7 µM | MOLT-4 50.4 µM | UACC-257 > 100 µM
